Experimental data: patent publication US20080280860A1, “Use of Vitamin D Compounds to Treat Endometriosis” (BioXell S.p.A., priority 2005, published 2008)

Tested on: endometriotic lesions
Experiment: In vivo model of endometriosis (lesion weight)
Set-up: species or system Balb/c mice
Procedure: Balb/c donor mice were injected with estrogen (Estradiol AMSA; 3 ug/mouse) and one week later were sacrificed and the uterus was removed, the two horns isolated and reduced to small fragments. The fragments derived from the isolated uterine horns were resuspended in saline with ampicillin (1 mg/ml) and then injected into the peritoneum of two recipient Balb/c mice, previously anesthesized, through a 0.5 cm incision in the abdominal wall. […] Antibiotic (ampicillin 1 mg/ml) was administered on the day of the surgery and on the day after. […] […] Lesions can be identified as translucid isolated or grouped cysts mainly found on the abdominal wall, on the pancreas, and around the uterus. In some cases the lesions are necrotic. The lesions were carefully removed and put on a glass slide to dry for 48 hours, and then were weighed. In other experiments lesions are transferred to a lysis solution and mRNA isolated for gene expression analysis. For immunohistochemical analysis, lesions were frozen immediately after isolation.
Balb/c donor mice were injected with estrogen (Estradiol AMSA; 3 ug/mouse) and one week later were sacrificed and the uterus was removed, the two horns isolated and reduced to small fragments. The fragments derived from the isolated uterine horns were resuspended in saline with ampicillin (1 mg/ml) and then injected into the peritoneum of two recipient Balb/c mice, previously anesthetised, through a 0.5 cm incision in the abdominal wall. Antibiotic (ampicillin 1 mg/ml) was administered on the day of the surgery and on the day after. […] Dosage levels of the test compounds were at the maximum tolerated levels for the compound in question, i.e. 1-alpha-fluoro-25-hydroxy-16,23E-diene-26,27-bishomo-20-epi-cholecalciferol (Compound A) 100 ug/kg, calcitriol (Compound B) 0.3 ug/kg and 1,25-dihydroxy-21-(3-hydroxy-3-methylbutyl)-19-nor-cholecalciferol (Compound C) 3 ug/kg.
(§1) […] Lesions can be identified as translucid isolated or grouped cysts mainly found on the abdominal wall, on the pancreas, and around the uterus. In some cases the lesions are necrotic. The lesions were carefully removed and put on a glass slide to dry for 48 hours, and then were weighed.
Balb/c donor mice were injected with estrogen (Estradiol AMSA; 3 ug/mouse) and one week later were sacrificed and the uterus was removed, the two horns isolated and reduced to small fragments. The fragments derived from the isolated uterine horns were resuspended in saline with ampicillin (1 mg/ml) and then injected into the peritoneum of recipient Balb/c mice, previously anesthetised, through a 0.5 cm incision in the abdominal wall. Antibiotic (ampicillin 1 mg/ml) was administered on the day of the surgery and on the day after. […]
as §1, with “weighed. At least 10 test animals were used in each group.” for “weighed.”
Further experiments were performed using Compound A at 100 ug/kg but varying the time at which administration of the vitamin D compound was initiated and the time point at which administration was ceased. Specifically: (i) administration for 1 week prior to injection of the uterine fragments (ii) administration for 2 weeks subsequent to injection of the uterine fragments (iii) administration for 1 week prior and 2 weeks subsequent to injection of the uterine fragments (iv) administration for 2 weeks, initiated two days subsequent to injection of the uterine fragments (v) administration for 2 weeks, initiated two weeks subsequent to injection of the uterine fragments. In these experiments, subjects were sacrificed at the later of two weeks post injection or the end of the treatment period as appropriate.

[1] = Example 3 dose/response, ip once a day, 5 days a week for two weeks, FIG. 7

Structure (SMILES): C=C1/C(=C\C=C2/CCC[C@]3(C)C([C@@H](C)C/C=C/C(O)(CC)CC)=CC[C@@H]23)C[C@@H](O)C[C@@H]1F [Compound A, 1-alpha-fluoro-25-hydroxy-16,23E-diene-26,27-bishomo-20-epi-cholecalciferol]
- reduction in lesion weight, group (v) (100 ug/kg, 2 weeks, initiated 2 weeks after uterus transfer, FIG. 8): 34%
- reduction in lesion weight, group (iv) (100 ug/kg, 2 weeks, initiated 2 days after uterus transfer, FIG. 8): 35%
- reduction in lesion weight, group (i) (100 ug/kg, administration for 1 week prior to injection of the uterine fragments, FIG. 8): 40%
- reduction in lesion weight, group (iii) (100 ug/kg, one week before and two weeks after uterus transfer, FIG. 8): 73%
- reduction in lesion weight, group (ii) (100 ug/kg, two weeks starting at the time of uterus transfer, FIG. 8): 48%
- lesion weight, treated versus control (vehicle only) (Example 1, 100 ug/kg ip once a day, 5 days a week for two weeks, 17 pairs of mice, p=0.0034 paired, p=0.020 unpaired t test): significant reduction in lesion weight
- lesion weight reduction between paired animals (mean ± standard error) (Example 2, 100 ug/kg ip once a day, 5 days a week for two weeks after uterus transfer, 24 mice per group): 51±11%
- mean lesion weight (Example 2, 100 ug/kg ip, two weeks, miglyol control 8.452±1.039 mg): 3.527 ± 0.5400 mg
- reduction in lesion weight compared with the other compounds tested (Example 2, each compound at its maximum tolerated level): most pronounced
- lesion weight, treated versus control (vehicle only), statistical analysis (Example 2, each compound at its maximum tolerated level, ip once a day, 5 days a week for two weeks): significant reduction in lesion weight
- reduction in lesion weight at 1/10 MTD [1]: approximately 20%
- reduction in lesion weight at around ⅓ MTD [1]: approximately 35%
